In article PMC12718081 (ACS Infectious Diseases, 2025):
Where “and” joins values, the source holds several entries; their conditions need not be identical. Identical values can stand only once. Like-named read-outs stand apart in the source and are kept apart here.

Assays:
Sm.TRPMPZQ (wild-type) = Sm.TRPMPZQ (wild-type) (Schistosoma mansoni, UniProt A0A5K4F0X5); assay: Ca2+ reporter (FLIPR) activation assay, wild-type Sm.TRPMPZQ in HEK293 cells; format: cell-based
Method in brief: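 Wild-type Sm.TRPMPZQ in HEK293 cells, with untransfected HEK293 as control. Cells dye-loaded in HBSS/20 mM HEPES buffer with 2.5 mM probenecid, 0.3% BSA and 0.03% ascorbic acid (40 min 37 °C, then 20 min RT). FLIPR Ca²⁺ flux at room temperature: 20 s baseline, then drug addition, then 250 s recording.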

[1] = test system: adult schistosomes (male and female worms); assay: Adult worm ex vivo high-content image-based motility assay; format: cell-based, Schistosoma mansoni
juvenile schistosomes = assay: Microscopy analysis of juvenile morphology and motility (viability score 0-3); conditions: 72 h
Eg.TRPMPZQ = Eg.TRPMPZQ (Echinococcus granulosus, UniProt W6UVV9); assay: cell-based; conditions: HEK293, Ca2+ reporter, mean ± standard deviation; read-out: Bmax, Eg.TRPMPZQ activation
Eg.TRPMPZQ, sequence (W6UVV9 entry or part of it): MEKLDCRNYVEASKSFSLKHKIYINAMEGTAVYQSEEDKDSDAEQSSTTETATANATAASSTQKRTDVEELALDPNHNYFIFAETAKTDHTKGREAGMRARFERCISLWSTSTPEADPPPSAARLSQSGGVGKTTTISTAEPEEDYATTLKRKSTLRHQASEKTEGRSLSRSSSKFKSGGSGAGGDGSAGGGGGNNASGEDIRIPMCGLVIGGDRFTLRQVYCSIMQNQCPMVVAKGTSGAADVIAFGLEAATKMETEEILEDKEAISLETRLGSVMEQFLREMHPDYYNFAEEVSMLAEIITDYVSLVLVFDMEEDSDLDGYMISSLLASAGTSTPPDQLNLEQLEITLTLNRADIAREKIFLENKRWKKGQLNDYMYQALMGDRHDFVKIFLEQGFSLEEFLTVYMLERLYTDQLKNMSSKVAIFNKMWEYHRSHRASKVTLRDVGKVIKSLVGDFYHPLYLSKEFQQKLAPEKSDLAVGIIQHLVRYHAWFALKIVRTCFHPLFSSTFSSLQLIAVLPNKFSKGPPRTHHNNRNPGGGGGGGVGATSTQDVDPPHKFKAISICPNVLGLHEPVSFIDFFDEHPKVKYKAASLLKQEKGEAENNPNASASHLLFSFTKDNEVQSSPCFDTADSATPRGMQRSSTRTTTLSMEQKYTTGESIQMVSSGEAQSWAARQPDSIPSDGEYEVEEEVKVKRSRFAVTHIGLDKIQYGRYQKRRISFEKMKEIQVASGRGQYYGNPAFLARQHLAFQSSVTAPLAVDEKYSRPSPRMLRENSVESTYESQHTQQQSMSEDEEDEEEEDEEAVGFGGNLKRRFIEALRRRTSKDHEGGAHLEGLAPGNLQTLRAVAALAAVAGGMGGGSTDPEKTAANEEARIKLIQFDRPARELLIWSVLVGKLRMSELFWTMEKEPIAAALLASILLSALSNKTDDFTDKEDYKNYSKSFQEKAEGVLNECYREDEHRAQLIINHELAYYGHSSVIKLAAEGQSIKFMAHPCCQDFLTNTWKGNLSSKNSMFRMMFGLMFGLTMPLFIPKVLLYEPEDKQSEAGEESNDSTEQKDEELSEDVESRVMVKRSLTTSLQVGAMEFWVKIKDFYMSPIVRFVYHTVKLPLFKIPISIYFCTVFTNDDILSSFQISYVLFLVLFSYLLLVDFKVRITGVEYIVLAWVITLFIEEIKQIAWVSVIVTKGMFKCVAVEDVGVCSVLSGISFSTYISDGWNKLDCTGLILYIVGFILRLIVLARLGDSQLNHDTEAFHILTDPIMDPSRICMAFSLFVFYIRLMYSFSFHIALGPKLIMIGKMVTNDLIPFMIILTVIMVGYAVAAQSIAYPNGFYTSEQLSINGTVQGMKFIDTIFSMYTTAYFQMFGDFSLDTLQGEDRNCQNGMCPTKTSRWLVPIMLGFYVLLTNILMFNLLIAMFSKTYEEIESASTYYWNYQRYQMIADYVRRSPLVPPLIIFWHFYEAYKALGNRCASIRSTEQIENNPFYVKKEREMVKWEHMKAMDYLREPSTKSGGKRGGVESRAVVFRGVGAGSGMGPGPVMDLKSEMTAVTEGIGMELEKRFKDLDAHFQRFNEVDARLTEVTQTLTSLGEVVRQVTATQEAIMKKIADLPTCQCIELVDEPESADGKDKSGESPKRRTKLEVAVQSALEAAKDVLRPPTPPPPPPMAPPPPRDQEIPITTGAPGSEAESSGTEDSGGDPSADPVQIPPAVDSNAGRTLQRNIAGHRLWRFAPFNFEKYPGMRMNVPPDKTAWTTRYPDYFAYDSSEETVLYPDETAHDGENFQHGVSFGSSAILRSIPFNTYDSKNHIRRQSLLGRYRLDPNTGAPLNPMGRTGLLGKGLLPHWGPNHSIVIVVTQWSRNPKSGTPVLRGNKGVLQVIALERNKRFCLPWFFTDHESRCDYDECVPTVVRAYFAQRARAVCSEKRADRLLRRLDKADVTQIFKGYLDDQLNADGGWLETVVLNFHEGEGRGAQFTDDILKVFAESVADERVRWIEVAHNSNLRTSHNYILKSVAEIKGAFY

Fh.TRPMPZQ = assay: Ca2+ reporter (FLIPR) activation assay, Fh.TRPMPZQ in HEK293 cells; format: cell-based, Fasciola hepatica; conditions: at the tested concentrations, data not shown
Description: (§1) Finally, selectivity for Sm.TRPMPZQ was assessed by profiling responses on the F. hepatica (Fh.TRPMPZQ) and E. granulosus (Eg.TRPMPZQ) TRPMPZQ orthologs, as well as the schistosome TRPM paralog Sm.TRPMMCLZ, a distinct TRPM channel activated by meclonazepam. Meclonazepam is an anthelmintic benzodiazepine known for its toxicity to juvenile schistosome worms.
(§2) The Ca^2+ reporter assay was performed using a Fluorescence Imaging Plate Reader (FLIPR) system, as described in the Supporting Information. […]
(§3) The half-maximal inhibitory
(§4) Windows (GraphPad Software, Boston, MA, USA; www.graphpad.com). […]
(§5) with DMSO as a negative control. […]
(§6) reader. […] The fluorescence
(§7) Untransfected HEK293 cells were used as a control.
(§8) 10% fetal bovine serum (FBS). […]
(§9) atmosphere containing 5% CO₂. Following incubation, the growth medium was removed and […]
(§10) buffer containing 2.5 mM probenecid in HBSS (with Ca²⁺ and Mg²⁺), 20 mM HEPES, 0.3% BSA (Sigma, A7030), and 0.03% L-ascorbic acid (Sigma). Cells were incubated for 40 minutes at 37 °C and subsequently for 20 minutes at room temperature. A total of seven PZQ derivatives were tested, using racemic PZQ included as a positive control on each assay plate. Drug dilutions were prepared in assay buffer without dye and probenecid and dispensed into separate flat-bottom 384-well plates. Calcium flux measurements were performed at room temperature using a […]
(§11) instrument (Molecular Devices). Baseline fluorescence was recorded for 20 seconds, followed by the addition of 5 µL of each drug solution, after which fluorescence was measured continuously for 250 seconds. […]

in vitro = conditions: human, HepG2 cytotoxicity (CC50)
Description: (§12) Next, we conducted a more detailed investigation by performing dose–response assays with each compound on HepG2 hepatic epithelial cells, as the liver is one of the major organs affected in intestinal schistosomiasis.
(§13) More details are provided in the Supporting Information.
(§14) Adult worm ex-vivo high-content assay
(§15) Male and female worms were placed in 96-well microplates (one worm per well) and incubated […]
(§16) to 72 hours. Brightfield timelapse images (100 images, 0.3-second intervals) were captured from each well before, immediately after, and every 24 hours following compound addition using an ImageXpress Micro Confocal High Content System equipped with a 2x objective. Image analysis was performed through a custom pipeline in CellProfiler software (v. 4.2.1, Windows OS).57 During analysis, the area of each worm and its displacement between consecutive image captures (i.e., images taken at successive time points) were measured using the parameters “Area” and “False Negative Rate” from the MeasureObjectSizeShape and MeasureObjectOverlap modules, respectively. These measurements were then modeled by a multilevel generalized linear statistical model. The effects of the experimental treatments on parasite motility were estimated with the integrated nested Laplace approximation (INLA) method, available in the INLA package of R (https://www.r-inla.org). The half-maximal inhibitory concentration (EC50) of each compound was calculated based on the worms' estimated motility using the […] 4-parameter logistic equation in GraphPad Prism version 9.0.0 for Windows (GraphPad Software, Boston, MA, USA; www.graphpad.com). […]
(§17) either at a fixed concentration (10 µM) or across a range of concentrations (0.0001–300 µM), or with DMSO as a negative control. Two hours before the end of the experiment (t0), a resazurin solution (final concentration: 0.01 mg/mL) was added to each well and the first fluorescence […]
(§18) reader. At the end of the incubation (t1), a second reading was performed. The fluorescence attributed solely to resorufin was measured by subtracting the fluorescence readings at t0 from those at t1. The results were expressed as percentual cell viability considering negative control

[2] = test system: HepG2 hepatic epithelial cells; assay: in vitro
Description: as §12, §13, §14, §15, §16, §17, §18

Sm.TRPMMCLZ = assay: Ca2+ reporter (FLIPR) activation assay, Sm.TRPMMCLZ in HEK293 cells; format: cell-based, Schistosoma mansoni; conditions: at the tested concentrations, data not shown
Description: as §1, §2, §3, §4, §5, §6, §7, §8, §9, §10, §11

Sm.TRPMPZQ (wild-type), sequence (A0A5K4F0X5 entry or part of it): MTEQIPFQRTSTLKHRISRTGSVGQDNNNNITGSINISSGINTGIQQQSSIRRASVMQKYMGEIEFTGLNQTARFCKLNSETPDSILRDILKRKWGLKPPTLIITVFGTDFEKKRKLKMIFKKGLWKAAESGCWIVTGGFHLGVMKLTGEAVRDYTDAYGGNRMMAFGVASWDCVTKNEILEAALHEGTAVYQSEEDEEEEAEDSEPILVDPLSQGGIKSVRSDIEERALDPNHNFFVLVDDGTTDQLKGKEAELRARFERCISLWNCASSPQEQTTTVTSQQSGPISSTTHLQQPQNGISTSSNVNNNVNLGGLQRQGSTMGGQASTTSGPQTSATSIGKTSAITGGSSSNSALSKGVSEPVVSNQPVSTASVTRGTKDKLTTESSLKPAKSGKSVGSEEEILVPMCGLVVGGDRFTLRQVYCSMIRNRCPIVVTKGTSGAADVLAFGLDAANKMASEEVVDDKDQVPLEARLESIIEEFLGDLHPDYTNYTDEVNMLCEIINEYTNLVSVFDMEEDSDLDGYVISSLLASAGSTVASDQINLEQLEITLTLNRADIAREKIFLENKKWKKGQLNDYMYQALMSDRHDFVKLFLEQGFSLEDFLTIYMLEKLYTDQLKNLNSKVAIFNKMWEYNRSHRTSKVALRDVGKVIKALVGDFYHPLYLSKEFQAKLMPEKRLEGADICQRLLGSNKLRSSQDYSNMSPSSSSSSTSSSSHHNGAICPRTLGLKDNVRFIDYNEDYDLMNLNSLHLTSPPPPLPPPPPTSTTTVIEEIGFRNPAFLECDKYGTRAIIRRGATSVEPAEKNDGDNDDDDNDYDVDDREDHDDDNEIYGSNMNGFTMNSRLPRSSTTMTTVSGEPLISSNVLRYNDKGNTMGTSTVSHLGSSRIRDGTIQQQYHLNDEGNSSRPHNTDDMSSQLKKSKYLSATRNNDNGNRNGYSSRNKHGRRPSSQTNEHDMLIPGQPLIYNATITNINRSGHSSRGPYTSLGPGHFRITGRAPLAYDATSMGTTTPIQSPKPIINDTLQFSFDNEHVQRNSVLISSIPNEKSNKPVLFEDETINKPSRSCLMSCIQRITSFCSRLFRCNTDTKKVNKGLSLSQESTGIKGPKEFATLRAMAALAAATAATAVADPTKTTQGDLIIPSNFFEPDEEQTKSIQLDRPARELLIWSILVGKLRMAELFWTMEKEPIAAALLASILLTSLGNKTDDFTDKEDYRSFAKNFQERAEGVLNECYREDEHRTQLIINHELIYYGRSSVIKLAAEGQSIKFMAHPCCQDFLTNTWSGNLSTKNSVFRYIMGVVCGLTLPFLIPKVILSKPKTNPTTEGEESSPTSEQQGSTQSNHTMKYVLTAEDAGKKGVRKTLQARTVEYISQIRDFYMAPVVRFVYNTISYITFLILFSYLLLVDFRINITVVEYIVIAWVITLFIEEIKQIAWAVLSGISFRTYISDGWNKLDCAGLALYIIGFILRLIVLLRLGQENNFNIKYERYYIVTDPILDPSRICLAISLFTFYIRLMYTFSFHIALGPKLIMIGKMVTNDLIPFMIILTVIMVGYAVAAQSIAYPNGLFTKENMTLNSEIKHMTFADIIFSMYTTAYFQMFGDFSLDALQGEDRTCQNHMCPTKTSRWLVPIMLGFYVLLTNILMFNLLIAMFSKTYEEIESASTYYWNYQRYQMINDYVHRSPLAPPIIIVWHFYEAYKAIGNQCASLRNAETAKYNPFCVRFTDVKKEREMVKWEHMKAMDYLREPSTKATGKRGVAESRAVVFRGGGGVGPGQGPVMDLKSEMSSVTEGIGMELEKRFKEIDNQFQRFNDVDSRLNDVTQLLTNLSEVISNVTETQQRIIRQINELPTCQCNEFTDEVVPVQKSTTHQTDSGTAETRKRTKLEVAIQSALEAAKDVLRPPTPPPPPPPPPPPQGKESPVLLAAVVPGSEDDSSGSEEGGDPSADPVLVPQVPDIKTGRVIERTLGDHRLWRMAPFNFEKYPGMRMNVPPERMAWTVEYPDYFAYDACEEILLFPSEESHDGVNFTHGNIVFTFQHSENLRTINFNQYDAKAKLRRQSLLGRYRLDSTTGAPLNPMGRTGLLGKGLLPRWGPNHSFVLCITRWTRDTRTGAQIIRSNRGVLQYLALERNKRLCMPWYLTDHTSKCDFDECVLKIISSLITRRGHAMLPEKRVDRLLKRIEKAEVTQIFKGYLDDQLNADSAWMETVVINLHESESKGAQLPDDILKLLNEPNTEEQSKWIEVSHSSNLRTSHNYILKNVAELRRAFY

Compound: CCCc1cn(-c2ccc3c(c2)C2CN(C(=O)C4CCCCC4)CC(=O)N2CC3)nn1 (stereo not shown) [Compound 5e]
- EC50 (Sm.TRPMPZQ (wild-type); 0.001 to 100 μM): 4.23 ± 0.15 µM
- Emax (Sm.TRPMPZQ (wild-type); read-out: Bmax, wild-type Sm.TRPMPZQ activation): 90.2 ± 1.53%
- EC50 ([1]; Schistosoma mansoni, 0 h, female adult worms, 0 h (immediately after addition), single experiment or geometric mean, read-out: Female worm motility inhibition (EC50)): 3500 nM
- EC50 ([1]; Schistosoma mansoni, 0 h, female, 0 h, individual experiments, read-out: Female worm motility inhibition (EC50), values of independent experiments): 2980 nM
- EC50 ([1]; Schistosoma mansoni, 0 h, male adult worms, 0 h (immediately after addition), single experiment or geometric mean, read-out: Male worm motility inhibition (EC50)): 2600 nM
- EC50 ([1]; Schistosoma mansoni, 0 h, male, 0 h, individual experiments, read-out: Male worm motility inhibition (EC50), values of independent experiments): 2500 nM
- EC50 ([1]; Schistosoma mansoni, 24 h, female adult worms, 24 h, single experiment or geometric mean, read-out: Female worm motility inhibition (EC50)): 3600 nM
- EC50 ([1]; Schistosoma mansoni, 24 h, female, 24 h, individual experiments, read-out: Female worm motility inhibition (EC50), values of independent experiments): 3700 nM
- EC50 ([1]; Schistosoma mansoni, 24 h, male adult worms, 24 h, single experiment or geometric mean, read-out: Male worm motility inhibition (EC50)): 2500 nM
- EC50 ([1]; Schistosoma mansoni, 24 h, male, 24 h, individual experiments, read-out: Male worm motility inhibition (EC50), values of independent experiments): 2290 nM
- EC50 ([1]; Schistosoma mansoni, 48 h, female adult worms, 48 h, single experiment or geometric mean, read-out: Female worm motility inhibition (EC50)): 3900 nM
- EC50 ([1]; Schistosoma mansoni, 48 h, female, 48 h, individual experiments, read-out: Female worm motility inhibition (EC50), values of independent experiments): 3140 nM
- EC50 ([1]; Schistosoma mansoni, 48 h, male adult worms, 48 h, single experiment or geometric mean, read-out: Male worm motility inhibition (EC50)): 1900 nM
- EC50 ([1]; Schistosoma mansoni, 48 h, male and female, 48 h, read-out: EC50 against schistosomes (adult motility), span over male and female): 1900 to 3900 nM
- EC50 ([1]; Schistosoma mansoni, 48 h, male, 48 h, individual experiments, read-out: Male worm motility inhibition (EC50), values of independent experiments): 1700 nM
- EC50 ([1]; Schistosoma mansoni, 72 h, female adult worms, 72 h, single experiment or geometric mean, read-out: Female worm motility inhibition (EC50)): 3100 nM
- EC50 ([1]; Schistosoma mansoni, 72 h, female, 72 h, individual experiments, read-out: Female worm motility inhibition (EC50), values of independent experiments): 2940 nM
- EC50 ([1]; Schistosoma mansoni, 72 h, male adult worms, 72 h, single experiment or geometric mean, read-out: Male worm motility inhibition (EC50)): 1700 nM
- EC50 ([1]; Schistosoma mansoni, 72 h, male, 72 h, individual experiments, read-out: Male worm motility inhibition (EC50), values of independent experiments): 1640 nM
- EC50 ([1]; Schistosoma mansoni, female, 0-72 h, read-out: EC50 against female adult worms (motility), span over incubation times): 3100 to 3900 nM
- EC50 ([1]; female, 0 h, individual experiments, read-out: Female worm motility inhibition (EC50), values of independent experiments): 2780 nM
- EC50 ([1]; female, 48 h, individual experiments, read-out: Female worm motility inhibition (EC50), values of independent experiments): 4770 nM
- EC50 ([1]; female, 72 h, individual experiments, read-out: Female worm motility inhibition (EC50), values of independent experiments): 3300 nM
- EC50 ([1]; male, 0 h, individual experiments, read-out: Male worm motility inhibition (EC50), values of independent experiments): 2680 nM
- EC50 ([1]; male, 24 h, individual experiments, read-out: Male worm motility inhibition (EC50), values of independent experiments): 2320 nM and 2840 nM
- EC50 ([1]; male, 48 h, individual experiments, read-out: Male worm motility inhibition (EC50), values of independent experiments): 2120 nM and 1990 nM
- EC50 ([1]; male, 72 h, individual experiments, read-out: Male worm motility inhibition (EC50), values of independent experiments): 1990 nM
- number of juvenile worms with viability score 0 (juvenile schistosomes; 10 μM, Table S1): 61
- number of juvenile worms with viability score 1 (juvenile schistosomes; 10 μM, Table S1): 7
- number of juvenile worms with viability score 2 (juvenile schistosomes; 10 μM, Table S1): 34
- number of juvenile worms with viability score 3 (juvenile schistosomes; 10 μM, Table S1): 6
- viability at 10 µM (juvenile schistosomes; Schistosoma mansoni, read-out: Relative frequency of viability score 3): 5.6%
- Emax (Eg.TRPMPZQ): 132 ± 15%
- activation of Fh.TRPMPZQ (Fh.TRPMPZQ): did not activate
- CC50 at 48 h (in vitro): ~300 µM
- CC50 at 48 h (in vitro; values of independent experiments): 286 µM
- Selectivity Index (CC50/EC50), Female ([2]; HepG2 CC50 / female worm motility EC50, 48 h): 75.4 and 75
- Selectivity Index (CC50/EC50), Male ([2]; HepG2 CC50 / male worm motility EC50, 48 h): 154.7 and 155
- Selectivity Index (SI), sex not specified ([2]; HepG2 vs adult worms, 48 h): > 100
- activation of Sm.TRPMMCLZ (Sm.TRPMMCLZ): did not activate
